Assays:
[1] = test system: bacterial reverse mutation assay (Ames test); assay: In vitro bacterial reverse mutation assay (Ames test); type: cell-based; settings: with or without metabolic activation
Text: MDMA was not mutagenic with or without metabolic activation in the in vitro bacterial reverse mutation assay (Ames test).

CHO-WBL cells = assay: Chromosomal aberrations in CHO-WBL cells; type: cell-based; settings: with and without metabolic activation
healthy individuals [2] = assay: Study MPKF: ECG / QTcF; type: in vivo, human
Text: Specifically, there was no change in mean QTcF over time above 10 ms at any timepoint.

healthy individuals [3] = assay: Study MPKF: SE scores and C-SSRS; set-up: species or system human; settings: in vivo
Experimental: Those increases from baseline were observed between 0.5 to 4 hours after dosing. […] The other scores remained relatively stable in comparison to baseline across the sessions.

[4] = test system: participants with PTSD, eating disorder symptoms; assay: EAT-26 eating disorder psychopathology before and after MDMA-AT (Phase 3 trial NCT03537014); type: in vivo, human
Text: The Eating Attitudes Test (EAT or EAT-26) is a standardized self-reported questionnaire of symptoms and concerns characteristic of eating disorders. The EAT-26 uses a six-point scale based on how often the individual engages in specific behaviors. The questions can be answered: Always, Usually, Often, Sometimes, Rarely, and Never. Completing the EAT-26 yields a “referral index” based on three criteria: 1) the total score based on the answers to the EAT-26 questions; 2) answers to the behavioral questions related to eating symptoms and weight loss, and 3) the individual's body mass index (BMI) calculated from their height and weight. In some cases, an individual can be recommended for additional care if the individual meets a “cut off” score or threshold on one or more criteria. For example, if an individual score higher than a 20, the individual should be referred to a qualified professional for potential diagnosis of an eating disorder. (See, for example, Garner, D. M., & Garfinkel, P. E. (1979). Psychological Medicine, 9, 273-279.)
Exploratory data on ED psychopathology were analyzed that were collected as part of a Phase 3 trial (trial ID: NCT03537014, which is herein incorporated by reference in its entirety), which was a double-blind randomized controlled study that compared efficacy and safety of MDMA-AT between placebo and MDMA groups for treatment of PTSD. EAT-26 was included as a pre-specified exploratory measure to assess participants' attitudes about eating and food in addition to the presence of previously undetected EDs. EAT-26 assessments were collected at baseline (visit 4) and study termination (visit 20). This self-reported questionnaire consists of 25 components, each rated on a six-point scale of 0 (Never) to 3 (Always), plus an additional component rated from 0 (Always) to 3 (Never). The […] item addresses occurrence and frequency of specific eating behaviors, such as binge eating. Scores were combined to produce a total EAT-26 score, ranging from 0 to 78, with lower values indicating fewer symptoms. Participants meeting a total cut-off score of 20 or greater are considered likely candidates for having an ED diagnosis and warrant referral to a qualified professional.
Among a total of 90 participants who were randomized and received treatment, 89 participants completed the EAT-26 assessment at baseline, and seven participants withdrew from the study and were missing follow-up data (3 MDMA, 4 placebo). A total of 82 of 90 participants (91.1%) completed both baseline and follow-up EAT-26 assessments and were included in the final analysis. This preliminary analysis of an exploratory measure included only completers of both EAT-26 scores at baseline and follow-up assessments to avoid imputation of data that would attenuate the accuracy of results. […] The baseline sample consisted of participants who were majority female (65.2%), identified as women (62.9%), non-Hispanic White or Latino (89.9%), college graduates (70.8%), and the mean (SD) age was 41.0 (12.00) years. In total, 17 participants had been prescribed sertraline, of which 8 and 9 were assigned to the MDMA and placebo treatment groups, respectively. Furthermore, 6 participants had been prescribed paroxetine, which were equally distributed between MDMA and placebo treatment groups (3 and 3, respectively). At baseline, BMI (kg/m2) scores were in the ‘normal’ range (BMI 18.5-24.9) in 56.2%, ‘overweight’ (BMI 25.0-29.9) in 28.1%, and ‘obese’ (BMI≥30) in 15.7% of participants. There were no treatment group differences in demographic variables or baseline ACE, BDI-II, CAPS-5, or lifetime C-SSRS assessments. Mean BMI (SD) was 26.0 (4.8) kg/m2 in the MDMA-AT group and 24.8 (4.2) kg/m2 in the PLAC-AT group (t=1.3, p=. 2).

BCRP = BCRP (Homo sapiens, UniProt Q9UNQ0); assay: Transporter substrate assessment, BCRP; settings: not told
BCRP, sequence (Q9UNQ0 whole entry): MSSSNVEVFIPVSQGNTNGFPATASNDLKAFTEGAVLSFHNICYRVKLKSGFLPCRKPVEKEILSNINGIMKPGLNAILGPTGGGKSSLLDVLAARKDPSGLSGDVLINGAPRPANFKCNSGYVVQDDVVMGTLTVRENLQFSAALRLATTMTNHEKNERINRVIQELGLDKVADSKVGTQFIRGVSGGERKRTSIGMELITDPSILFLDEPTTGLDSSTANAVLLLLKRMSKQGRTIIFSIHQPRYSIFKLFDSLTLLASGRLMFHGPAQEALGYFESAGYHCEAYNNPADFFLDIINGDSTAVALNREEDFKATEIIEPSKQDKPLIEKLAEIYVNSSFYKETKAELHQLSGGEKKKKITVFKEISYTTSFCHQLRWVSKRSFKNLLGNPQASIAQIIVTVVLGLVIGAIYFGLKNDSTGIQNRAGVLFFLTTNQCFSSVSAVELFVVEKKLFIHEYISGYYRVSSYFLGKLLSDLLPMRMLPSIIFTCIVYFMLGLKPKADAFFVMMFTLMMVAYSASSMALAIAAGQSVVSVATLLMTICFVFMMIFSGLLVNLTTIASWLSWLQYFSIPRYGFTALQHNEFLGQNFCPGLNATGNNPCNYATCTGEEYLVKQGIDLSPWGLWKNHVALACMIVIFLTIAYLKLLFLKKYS

OATP1B3 = OATP1B3 (Homo sapiens, UniProt Q9NPD5); assay: Transporter inhibition, OATP1B3
OATP1B3, sequence (Q9NPD5 whole entry): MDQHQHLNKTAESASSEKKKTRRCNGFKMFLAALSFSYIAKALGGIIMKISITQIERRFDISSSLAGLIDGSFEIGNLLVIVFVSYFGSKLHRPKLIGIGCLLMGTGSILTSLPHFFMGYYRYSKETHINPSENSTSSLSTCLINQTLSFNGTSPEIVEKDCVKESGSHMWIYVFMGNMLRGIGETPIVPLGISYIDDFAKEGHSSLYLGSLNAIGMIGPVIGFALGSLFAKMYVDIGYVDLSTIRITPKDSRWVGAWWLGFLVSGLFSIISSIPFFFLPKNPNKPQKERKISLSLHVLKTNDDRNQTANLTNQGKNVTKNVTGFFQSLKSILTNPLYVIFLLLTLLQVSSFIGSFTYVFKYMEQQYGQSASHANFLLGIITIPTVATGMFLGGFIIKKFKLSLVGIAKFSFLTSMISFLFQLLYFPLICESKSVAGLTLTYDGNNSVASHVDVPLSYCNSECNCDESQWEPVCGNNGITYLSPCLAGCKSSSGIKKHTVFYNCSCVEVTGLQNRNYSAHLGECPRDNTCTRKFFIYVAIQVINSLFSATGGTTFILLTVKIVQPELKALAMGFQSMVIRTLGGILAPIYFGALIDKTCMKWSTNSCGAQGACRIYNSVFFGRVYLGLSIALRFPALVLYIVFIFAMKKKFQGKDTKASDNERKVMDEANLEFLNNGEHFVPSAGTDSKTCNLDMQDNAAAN

[5] = fasted group, 12-hour timepoint

## CNC(C)Cc1ccc2c(c1)OCO2 (stereo not shown) [MDMA, 3,4-methylenedioxymethamphetamine]
[1]
  mutagenicity, Ames test: not mutagenic
CHO-WBL cells
  chromosomal aberrations: no signs of chromosomal aberrations
Healthy individuals [2]; any timepoint
  change in mean QTcF over time: ≤ 10 ms
Healthy individuals [2]; [5]
  participants with mean QTcF increase from baseline above 30 ms: 6.3%
  participants with mean QTcF increase from baseline above 30 ms, n: 1 participant
Healthy individuals [2]; in vivo
  impact on ECG parameters: no significant impact
Healthy individuals [2]; no participant above, any group
  QTcF intervals: ≤ 450 ms
Healthy individuals [3]
  C-SSRS scores: No abnormal C-SSRS scores
[4]; baseline EAT-26≥11 subset
  Cohen's d, EAT-26 reduction MDMA vs placebo: 0.52
  RCI score, EAT-26: −2.16
  within-subject mean (SD) reduction in EAT-26 scores: −9.58 (7.59)
[4]; baseline EAT-26≥20 subset
  RCI score, EAT-26: −2.83
  within-subject mean reduction in EAT-26 scores: −14.08
[4]; reduced from 5 (11.90%) at baseline
  participants with EAT-26≥20 at follow-up: 2.38%
[4]; total sample
  within-subject mean (SD) reduction in EAT-26 scores, baseline to follow-up: −3.04 (6.24)
[4]; total sample, adjusted for baseline
  Hedge's g, EAT-26 change scores MDMA vs placebo: 0.33
[4]; women with EAT-26≥11
  RCI score, EAT-26: −2.90
[4]; women with baseline EAT-26≥11
  Hedge's g, EAT-26 change scores MDMA vs. placebo: 0.63
[4]; women with baseline EAT-26≥20
  Hedge's g, EAT-26 change scores MDMA vs. placebo: 0.60
[4]; women with baseline EAT-26≥20, group not given
  RCI, change in EAT-26 score: −18.80
BCRP
  substrate of BCRP: not a substrate
OATP1B3
  inhibition of OATP1B3: not an inhibitor

Reference: patent publication US20250134855A1, “CO[…] AND METHODS OF USING SAME” (LYKOS THERAPEUTICS, INC., priority 2022, published 2025)
